{
  "source": "patent US8057829B2",
  "about": "“Methods for repelling insects using sesquiterpene hydrocarbons and their derivatives” (Sterling International Inc., priority 2008, dated 2011)",
  "key": {"[1]": {"test_system": "antennae of housefly, sand fly, and mosquitoes Aedes aegypti, Anopheles gambiae, Anopheles stephensi", "experiment": "GC-EAD antennal responses to SPME samples of clove essential oil", "conditions": "component of clove essential oil SPME sample; response by one or more of the insects; FIG. 1", "experimental": "The GC-EAD antennal response of a female housefly (Musca domestica), sand fly (Phlebotomus papatasi), and mosquitoes including the species Aedes aegypti, Anopheles gambiae, and Anopheles stephensi were tested with clove essential oil. FIG. 1 is a simultaneous recording of GC flame ionization detection (FID) and electroantennographic detection (EAD) of the insect antennae to solid phase microextraction (SPME: CAR/PDMS) samples of clove essential oil in a 20 ml glass vial for 20 sec.\nThe following procedures were employed to test the EAD response of an insect antenna to a repellent compound. The GC-EAD technique provides an efficient tool for screening behaviorally active repellents. Several synthetic mixtures of potential insect repellent candidates, mostly sesquiterpene hydrocarbons and derivatives, were analyzed in splitless mode using a Varian CP-3800 GC equipped with a polar column (Innowax; 1.0 μm film thickness, 30 m×0.53 mm ID; J & W Scientific), and a 1:1 effluent splitter that allowed simultaneous flame ionization detection (FID) and EAD of the separated volatile compounds. Helium was used as the carrier gas, and the injector temperature was 220° C. The column temperature was 50° C. for 2 min, rising to 240° C. at 10° C./min, then held for 10 min. The outlet for the EAD was held in a humidified air stream flowing at 0.5 liter/min. over an antennal preparation. A glass capillary indifferent electrode filled with Beadle-Ephrussi Ringer, and grounded via a silver wire, was inserted into the severed insect's head with the antennae. A similar recording electrode connected to a high-impedance DC amplifier with automatic baseline drift compensation was placed in contact with the distal end of one antenna (Zhang et al., Chemoecology, 10:69-80 (2000)). The antennal signals were stored and analyzed on a PC equipped with a serial IDAC interface box and the program EAD ver. 2.5 (Syntech, Hilversum, The Netherlands). The compound 1-octen-3-ol (known attractant for many flies and mosquitoes) was included in most of the synthetic mixtures, as a positive control. […]"}, "[2]": {"test_system": "Aedes Aegypti, Anopheles stephensi and the sand fly P. papatasi", "experiment": "Y-tube bioassay, statements pooled for the three species", "assay_type": "in vivo, Aedes aegypti; Anopheles stephensi; Phlebotomus papatasi", "conditions": "clove oil ca. 10 mg/day, patchouli oil 15 mg/d, sesquiterpenes 1 to 35 mg/d release", "experimental": "(§1) Aegypti and An. stephensi, and one species of sand fly, P. papatasi. Both the mosquitoes and the sand flies used in the study were from colonies maintained at the Walter Reed Army Institute of Research, Department of Entomology, Silver Spring, Md. This Y-tube bioassay system, equipped with CO2-enriched air (ca. 1 l/min) as an attractant, was made from three clear acrylic tubes (4″ diameter; 12″ length) with symmetrical 120° angles among the three tube arms; and a screen butterfly valve on the top part of the bottom releasing tube. These spatial repellency tests were carried out during 8:00 am-12:00 pm (photophase) time period for Ae. aegypti and 1:00-5:00 pm (shifted scotophase) time period for the species of night-flying mosquitoes and sand fly in a temperature and humidity controlled testing room (23-25° C. and 20-40% RH). Female mosquitoes or sand flies were stored at ˜25-26° C., 50-89% RH, 12:12 hr. (L/D), fed with 10% sucrose solution before testing. The candidate chemical (individual or mixture) dispenser and a blank control were placed in the upper left or right arm of the Y-tube before releasing 25-40, 6 to 10 day-old female mosquitoes (or 3 to 10 day-old sand flies) into the bottom tube via a small hole. After a 30-60 sec acclimation period, the butterfly screen valve (door) on the top of the bottom tube was opened. After 10 min., the valve was closed and the numbers of mosquitoes or sand flies in each arm (including the bottom tube) were counted. In order to minimize the position effect, the same experiment was repeated once with the treatment and blank control arms shifted using a new (clean) Y-tube olfactometer and a new batch of mosquitoes/sand flies. Data from these two replicates were pooled for χ2 goodness of fit test (df=1) between the treatment and blank control."}, "Anopheles stephensi [3]": {"test_system": "Anopheles stephensi", "experiment": "Y-tube olfactometer behavioral bioassay (spatial repellency)", "assay_type": "in vivo", "experimental": "as §1"}, "Phlebotomus papatasi": {"test_system": "Phlebotomus papatasi", "experiment": "Y-tube olfactometer behavioral bioassay (spatial repellency)", "assay_type": "in vivo", "experimental": "as §1"}, "Aedes aegypti [4]": {"test_system": "Aedes aegypti", "experiment": "Y-tube olfactometer behavioral bioassay (spatial repellency)", "assay_type": "in vivo", "experimental": "as §1"}, "Anopheles stephensi [5]": {"test_system": "Anopheles stephensi", "experiment": "K&D module behavioral bioassay (topical repellency, biting)", "assay_type": "in vivo", "experimental": "(§2) The bioassays were conducted with a six-cell in vitro K&D module system, as disclosed in Klun and Debboun, J. Med. Entomol. 37:177-181 (2000), loaded with an “artificial blood” (CPDA+ATP) solution.\n(§3) Clove essential oil, patchouli oil, and EAD-active potential repellents, β-caryophyllene, isocaryophyllene, (+)-longifolene, and their 1:1:1 mixture, plus α-guaiene, caryophyllene oxide, and a β-caryophyllene ketone, were tested using the six-cell in vitro K&D module system (Klun and Debboun, J. Med. Entomol. 37:177-181 (2000)) loaded with an “artificial blood” (CPDA+ATP) solution on both Ae. aegypti and An. stephensi in a dose-response fashion. The K&D in vitro assay system has three components: (1) a Plexiglas™ 29.7 cm.×7.1 cm K&D module composed of six adjacent cells, each designed to hold mosquitoes and each having a rectangular 3×4 cm floor hole that is opened and closed by a sliding door; (2) a Plexiglas™ six-well 29.7 cm×7.1 cm water water-bath warmed (38° C.) reservoir with six 3×4 cm wells designed to match the sliding-door openings of the K&D module base and to contain 6 mL warmed “artificial blood” wells covered with a collagen membrane; and (3) a 29.7 cm×7.1 cm'0.4 cm Teflon® separator having six rectangular openings like the K&D module. The K&D module was connected to a constant temperature water circulator at 38° C. The cells were covered with an Edicol collagen membrane strip. Nylon organdy strips with ink cell patterns were numbered and randomly treated with […] of the tested chemical in ethanol (ethanol alone as blank control), plus DEET (ca. 10 μg/cm^2) as a positive control. This treated nylon organdy strip was placed on top of the collagen membrane. The upper section of the K & D module with the six cells each containing 5 mosquitoes (5-10 d old, starved for 24 hr before testing) was placed on top of the nylon strip. The doors to the cells were slid open so the mosquitoes could be free to feed on the “artificial blood” via the collagen membrane if they were hungry. The experiments were allowed to run for 3 minutes, and the number of mosquitoes feeding (biting) in each cell was recorded. After each experiment, the nylon and collagen strips were removed. The CPDA+ATP solution was removed and allowed to dry prior to starting the next experiment. The experiments on each chemical and each mosquito species were run three times before the bottom section with circulated water was cleaned prior to use again."}, "Aedes aegypti [6]": {"test_system": "Aedes aegypti", "experiment": "K&D module behavioral bioassay (topical repellency, biting)", "assay_type": "in vivo", "experimental": "as §2, §3"}, "[7]": {"test_system": "antennae of housefly, sand fly, and mosquitoes (Aedes aegypti, Aedes increpitus, Anopheles gambiae)", "experiment": "GC-EAD antennal responses to SPME samples of patchouli essential oil", "conditions": "component of patchouli essential oil SPME sample; response by one or more of the insects; FIG. 2", "experimental": "The following procedures were employed to test the EAD response of an insect antenna to a repellent compound. The GC-EAD technique provides an efficient tool for screening behaviorally active repellents. Several synthetic mixtures of potential insect repellent candidates, mostly sesquiterpene hydrocarbons and derivatives, were analyzed in splitless mode using a Varian CP-3800 GC equipped with a polar column (Innowax; 1.0 μm film thickness, 30 m×0.53 mm ID; J & W Scientific), and a 1:1 effluent splitter that allowed simultaneous flame ionization detection (FID) and EAD of the separated volatile compounds. Helium was used as the carrier gas, and the injector temperature was 220° C. The column temperature was 50° C. for 2 min, rising to 240° C. at 10° C./min, then held for 10 min. The outlet for the EAD was held in a humidified air stream flowing at 0.5 liter/min. over an antennal preparation. A glass capillary indifferent electrode filled with Beadle-Ephrussi Ringer, and grounded via a silver wire, was inserted into the severed insect's head with the antennae. A similar recording electrode connected to a high-impedance DC amplifier with automatic baseline drift compensation was placed in contact with the distal end of one antenna (Zhang et al., Chemoecology, 10:69-80 (2000)). The antennal signals were stored and analyzed on a PC equipped with a serial IDAC interface box and the program EAD ver. 2.5 (Syntech, Hilversum, The Netherlands). The compound 1-octen-3-ol (known attractant for many flies and mosquitoes) was included in most of the synthetic mixtures, as a positive control."}, "[8]": {"conditions": "Anopheles stephensi females, release rate per chemical (β-Caryophyllene 10 mg/day), 10 min"}, "[9]": {"conditions": "Phlebotomus papatasi females, release rate per chemical, 10 min"}, "[10]": {"conditions": "Aedes aegypti females, release rate per chemical (1-60 mg/day), 10 min"}, "[11]": {"conditions": "10 μg/cm^2, DEET values are the positive control run with the chemical"}},
  "data": [
    {"compound": "C=CCc1ccc(O)c(OC)c1", "note": "[eugenol]", "values": [
      {"measurement": "GC-EAD antennal activity", "setting": "[1]", "result": "EAD-inactive (or weakly active)"}
    ]},
    {"compound": "C=C(C)[C@@H]1CC[C@H](C)C2=C(C1)[C@@H](C)CC2", "note": "[α-Guaiene, α-guaiene]", "values": [
      {"measurement": "spatial repellency, in words", "setting": "[2]", "result": "showed spatial repellency effects"},
      {"measurement": "Number of mosquitoes in each arm: Repellent", "setting": "Anopheles stephensi [3]; Anopheles stephensi females, release rate per chemical (1-60 mg/day; β-Caryophyllene 10 mg/day), 10 min", "result": 6},
      {"measurement": "Number of mosquitoes in each arm: Blank", "setting": "Anopheles stephensi [3]; [8]", "result": 20},
      {"measurement": "Number of mosquitoes in each arm: Bottom", "setting": "Anopheles stephensi [3]; [8]", "result": 40},
      {"measurement": "SAI (Spatial Activity Index)", "setting": "Anopheles stephensi [3]; Anopheles stephensi, β-Caryophyllene 10 mg/day", "result": 0.54},
      {"measurement": "SAI (Spatial Activity Index)", "setting": "Phlebotomus papatasi; Phlebotomus papatasi", "result": 0.78},
      {"measurement": "Number of mosquitoes in each arm: Repellent", "setting": "Phlebotomus papatasi; Phlebotomus papatasi (sand fly) females, release rate per chemical (1-35 mg/day), 10 min", "result": 5},
      {"measurement": "Number of mosquitoes in each arm: Blank", "setting": "Phlebotomus papatasi; [9]", "result": 41},
      {"measurement": "Number of mosquitoes in each arm: Bottom", "setting": "Phlebotomus papatasi; [9]", "result": 17},
      {"measurement": "Number of mosquitoes in each arm: Blank", "setting": "Aedes aegypti [4]; [10]", "result": 49},
      {"measurement": "Number of mosquitoes in each arm: Bottom", "setting": "Aedes aegypti [4]; [10]", "result": 16},
      {"measurement": "Number of mosquitoes in each arm: Repellent", "setting": "Aedes aegypti [4]; Aedes aegypti females, release rate per chemical (1-60 mg/day), 10 min, two replicates pooled", "result": 13},
      {"measurement": "SAI (Spatial Activity Index)", "setting": "Aedes aegypti [4]; Aedes aegypti, (Nc − Nt)/(Nc + Nt), −1 to 1, zero indicating no response", "result": 0.58},
      {"measurement": "% of biting (±SE) (N = 3)", "setting": "Anopheles stephensi [5]; [11]", "result": "40 ± 0", "unit": "b %"},
      {"measurement": "% of biting (±SE) (N = 3)", "setting": "Anopheles stephensi [5]; 100 μg/cm^2", "result": "0 ± 0", "unit": "a %"},
      {"measurement": "% of biting (±SE) (N = 3)", "setting": "Anopheles stephensi [5]; 500 μg/cm^2", "result": "0 ± 0", "unit": "a %"},
      {"measurement": "% of biting (±SE) (N = 3)", "setting": "Anopheles stephensi [5]; 1000 μg/cm^2", "result": "0 ± 0", "unit": "a %"},
      {"measurement": "% of biting (±SE) (N = 3)", "setting": "Aedes aegypti [6]; [11]", "result": "33 ± 7", "unit": "b %"},
      {"measurement": "% of biting (±SE) (N = 3)", "setting": "Aedes aegypti [6]; 100 μg/cm^2", "result": "0 ± 0", "unit": "a %"},
      {"measurement": "% of biting (±SE) (N = 3)", "setting": "Aedes aegypti [6]; 500 μg/cm^2", "result": "0 ± 0", "unit": "a %"},
      {"measurement": "% of biting (±SE) (N = 3)", "setting": "Aedes aegypti [6]; 1000 μg/cm^2", "result": "0 ± 0", "unit": "a %"},
      {"measurement": "GC-EAD antennal activity", "setting": "[7]", "result": "elicited EAD-activity"}
    ]}
  ]
}
